# Earlier results, collected in US20240164377A1, “LOW VOLATILITY PROMOTING WATER CONDITIONING ADJUVANTS” (Adjuvants Unlimited LLC, priority 2014, published 2024).
"Volatility relative to the diglycolamine salt (reported, see WO 2011/019652 A2)",SMILES,Volatility compared with another salt (in words) (background statement)
–,COc1c(Cl)ccc(Cl)c1C(=O)O.NCCOCCO [diglycolamine salt of dicamba],lower volatility than the dimethylamine salt of dicamba
about 100 times,"COc1c(Cl)ccc(Cl)c1C(=O)O [free acid form of dicamba, 3,6-dichloro-2-methoxybenzoic acid]",–
